# Experimental data taken from publication PMC8395767, “Worsening of the Toxic Effects of (±)Cis-4,4′-DMAR Following Its Co-Administration with (±)Trans-4,4′-DMAR: Neuro-Behavioural, Physiological, Immunohistochemical and Metabolic Studies in Mice” (International Journal of Molecular Sciences, 2021).
# Values joined by “and” are separate entries in the source; they are usually repeats but may differ in a detail not shown here. Equal entries are not always repeated. Marks after values point to notes of the source that are not given here.
# Assays:
# mice [1] = test: Psychomotor agitation (observational behavioural test); format: in vivo
# Experimental: (§1) The effects of (±)cis-4,4′-DMAR, (±)trans-4,4′-DMAR and their co-administration were investigated by a protocol widely used in studies of “safety pharmacology” for the preclinical characterization of new molecules in rodents. This protocol includes a series of observational behavioural tests carried out in a consecutive manner that monitor the animal responses up to 5 h after compound injections. In the present study, we reported the observation of physiological (sweating, salivation, core temperature) and neuro-behavioural (detection of psychomotor agitation, spontaneous and stimulated aggressiveness, convulsions) changes occurring in mice after injection of (±)cis-4,4′-DMAR, (±)trans-4,4′-DMAR and their co-administration. Before pharmacological treatment the mouse was placed on a square plate (30 cm× 30 cm) raised from the ground (20 cm) and left free to move on the plate for 10 min (habituation period). The animal was then injected with the vehicle, substances alone ((±)cis-4,4′-DMAR or (±)trans-4,4′-DMAR) or in cis + trans co-administration and placed on the plate. From this moment, the recording time of the physiological and neuro-behavioural responses started, and these were detected in 5-min sessions.
# (§2) After the first 5 min, the animal was removed from the plate; the body core temperature was then measured, and the aggression tests were performed. The 5-min observation period was repeated at 15–30–60–90–120–180–240–300. Psychomotor agitation in the mouse was not simply related to an increase in spontaneous locomotion itself, but by an “unusual hyperactivity” which was characterised by rapid and sudden horizontal displacements in all directions, sustained turning behaviour, involuntary falls from the high plate during the evaluation of the tests, stereotyped movements and rearing activity. Mouse sweating and salivation were reported only if present or not. The core temperature was determined using a probe (1 mm diameter) that was gently inserted after lubrication with liquid Vaseline into the rectum of the mouse (to about 2 cm) and left in position until the temperature stabilised (about 10 s). The probe was connected to a digital thermometer. Spontaneous aggressive response was measured based on the number of times a mouse bit a grey cloth put in front of its snout. During the test, each mouse was free to move within the cage. In the case of stimulated aggressiveness, each mouse was manually restrained and held in a supine position following which an object was brought near the mouth. For both spontaneous and stimulated aggressive behaviour tests, a grey cloth was placed in front of the nose of each mouse 10 consecutive times (score 0/10 not aggressive, score 10/10 very aggressive). Convulsions were defined as a loss of righting reflexes for at least 5 s, combined with the presence of body tremors and clonic or tonic limb movements. Deaths caused by 4-4’-DMAR injection occurring during the observation period (5 h) were also reported as frequency (%) and time of death (min). Experiments were conducted inside the LARP (Centralised Preclinical Research Laboratory, University of Ferrara, Ferrara, Italy) in a thermo-stated (temperature 20–22 °C, humidity about 45–55%) and light controlled (about 150 lux) room, in which there was a background noise of about 40 ± 4 dB. The experiments, conducted in blind by trained observers working together in pairs, were videotaped and eventually analysed off-line by a different trained operator. The experiments were performed between 8:30 a.m. and 2:00 p.m.
# (§3) Sweating and salivation were expressed as frequency (e.g., % of animals that developed symptoms); psychomotor agitation was expressed as frequency (% of animals) and duration (total time in mins). Core temperature values were expressed as the difference between control temperature (before injection) and temperature following drug administration (Δ°C). […]
# mice [2] = test: Sweating and salivation (observation, present or not); format: in vivo; conditions: n=6 mice
# Experimental: as §1, §2, §3
# mice [3] = test: Convulsions (observation); format: in vivo; conditions: n=6 mice
# Experimental: as §1, §2, §3
# DAT = tested on: DAT; parameters: method as in PMID 25331619; conditions: rat brain tissue, lower potency than (±)cis-4,4′-DMAR; cited from earlier work
# mice [4] = test: Physiological and neuro-behavioural responses, all parameters (safety pharmacology protocol); format: in vivo
# Experimental: The effects of (±)cis-4,4′-DMAR, (±)trans-4,4′-DMAR and their co-administration were investigated by a protocol widely used in studies of “safety pharmacology” for the preclinical characterization of new molecules in rodents. This protocol includes a series of observational behavioural tests carried out in a consecutive manner that monitor the animal responses up to 5 h after compound injections. […] From this moment, the recording time of the physiological and neuro-behavioural responses started, and these were detected in 5-min sessions.
# After the first 5 min, the animal was removed from the plate; the body core temperature was then measured, and the aggression tests were performed. […] The core temperature was determined using a probe (1 mm diameter) that was gently inserted after lubrication with liquid Vaseline into the rectum of the mouse (to about 2 cm) and left in position until the temperature stabilised (about 10 s). […] Spontaneous aggressive response was measured based on the number of times a mouse bit a grey cloth put in front of its snout. […] The experiments, conducted in blind by trained observers working together in pairs, were videotaped and eventually analysed off-line by a different trained operator. […]
# [5] = 10 mg/kg i.p., n=4 mice (animals of the urine excretion study)
# [6] = 30 mg/kg i.p., listed as (±)cis-4,4′-DMAR
# [7] = 60 mg/kg i.p., listed as (±)cis-4,4′-DMAR
compound,measurement,setting,value
"Cc1ccc(C2OC(N)=NC2C)cc1 (stereo not drawn) [cis-4,4’-DMAR, 4-methyl-5-(4-methylphenyl)-4,5-dihydrooxazol-2-amine]",Psychomotor agitation Frequency % (n° of mice),"mice [1]; 1 mg/kg i.p., n=6 mice",ineffective
same,Psychomotor agitation Duration,"mice [1]; 3 mg/kg i.p., n=6 mice",54.2 ± 10.30 min
same,Psychomotor agitation Frequency % (n° of mice),"mice [1]; 3 mg/kg i.p., n=6 mice",100% (6)
same,Psychomotor agitation Latency,"mice [1]; 3 mg/kg i.p., n=6 mice",61.2 ± 6.30 min
same,"Psychomotor agitation, start of effect","mice [1]; 10 mg/kg alone, mice",about thirty
same,Psychomotor agitation Duration,mice [1]; [5],125.0 ± 10.12 min
same,Psychomotor agitation Frequency % (n° of mice),mice [1]; [5],100% (4)
same,Psychomotor agitation Latency,mice [1]; [5],26.4 ± 6.25 min
same,Psychomotor agitation Duration,"mice [1]; 10 mg/kg i.p., n=6 mice",121.0 ± 12.35 min
same,Psychomotor agitation Duration (min),"mice [1]; 10 mg/kg i.p., n=6 mice",121.0 ± 12.35 ^a min
same,Psychomotor agitation Frequency % (n° of mice),"mice [1]; 10 mg/kg i.p., n=6 mice",100% (6)
same,Psychomotor agitation Latency,"mice [1]; 10 mg/kg i.p., n=6 mice",28.2 ± 7.20 min
same,Psychomotor agitation Latency (min),"mice [1]; 10 mg/kg i.p., n=6 mice",28.2 ± 7.20 ^a min
same,Psychomotor agitation Frequency % (n° of mice),"mice [1]; 10 mg/kg i.p., n=6 mice, listed as (±)cis-4,4′-DMAR",100%
same,Psychomotor agitation Duration (min),"mice [1]; 30 mg/kg i.p., n=6 mice",235.1 ± 15.25 ^ab min
same,Psychomotor agitation Frequency % (n° of mice),"mice [1]; 30 mg/kg i.p., n=6 mice",100% (6)
same,Psychomotor agitation Latency (min),"mice [1]; 30 mg/kg i.p., n=6 mice",3.2 ± 0.25 ^ab min
same,Psychomotor agitation Duration (min),"mice [1]; 60 mg/kg i.p., n=6 mice",280.1 ± 12.35 ^ab min
same,Psychomotor agitation Frequency % (n° of mice),"mice [1]; 60 mg/kg i.p., n=6 mice",100% (6)
same,Psychomotor agitation Latency,"mice [1]; 60 mg/kg i.p., n=6 mice",2.2 ± 0.15 min
same,Psychomotor agitation Latency (min),"mice [1]; 60 mg/kg i.p., n=6 mice",2.2 ± 0.15 ^ab min
same,"Psychomotor agitation, dose range in which the effect was significant","mice [1]; i.p., mice, tested 0.1–60 mg/kg",3 to 60 mg/kg
same,Salivation Frequency % (n° of mice),mice [2]; 30 mg/kg i.p.,100% (6)
same,Sweating Frequency % (n° of mice),mice [2]; 30 mg/kg i.p.,100% (6)
same,Salivation Frequency % (n° of mice),mice [2]; [6],All animals
same,Sweating Frequency % (n° of mice),mice [2]; [6],All animals
same,Salivation Frequency % (n° of mice),mice [2]; 60 mg/kg i.p.,50% (3)
same,Sweating Frequency % (n° of mice),mice [2]; 60 mg/kg i.p.,100% (6)
same,Sweating Frequency % (n° of mice),mice [2]; [7],50%
same,Convulsion Duration of each episode,mice [3]; 30 mg/kg i.p.,4.86 ± 1.26 s
same,Convulsion Episodes (n°),mice [3]; 30 mg/kg i.p.,3.5 ± 0.5 n°
same,Convulsion Frequency % (n° of mice),mice [3]; 30 mg/kg i.p.,50% (3)
same,Convulsion Latency of first episode,mice [3]; 30 mg/kg i.p.,10.5 ± 1.5 s
same,Convulsion Frequency % (n° of mice),mice [3]; [6],50%
same,Convulsion Duration of each episode,mice [3]; 60 mg/kg i.p.,16.14 ± 6.2 s
same,Convulsion Duration of each episode (sec),mice [3]; 60 mg/kg i.p.,16.14 ± 3.2 ^d sec
same,Convulsion Episodes (n°),mice [3]; 60 mg/kg i.p.,2.0 ± 0.41 ^d n° and 2.0 ± 0.41 n°
same,Convulsion Frequency % (n° of mice),mice [3]; 60 mg/kg i.p.,100% (6)
same,Convulsion Latency of first episode,mice [3]; 60 mg/kg i.p.,8.25 ± 1.1 s
same,Convulsion Frequency % (n° of mice),mice [3]; [7],100%
"Cc1ccc(C2OC(N)=NC2C)cc1 (stereo not drawn) [trans-4,4’-DMAR, 4-methyl-5-(4-methylphenyl)-4,5-dihydrooxazol-2-amine]",Mode of action at DAT,DAT,substrate-type releaser
same,Physiological and neuro-behavioural changes,"mice [4]; 30 and 60 mg/kg, systemic administration",did not induce any physiological and neuro-behavioural changes
same,"Physiological and neuro-behavioural parameters, all parameters studied",mice [4]; lower doses of 0.1 and 1 mg/kg,inactive
